Calls of active or inactive are those of the source.
Columns and labels:
Type in all cases: functional
[1] = target: Cyclin-dependent kinase 5 (Homo sapiens, UniProt Q00535);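 note: CDK5 measured as one member of a kinase profiling panel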
[2] = target: T1, Serine/threonine-protein kinase TBK1 (Homo sapiens, UniProt Q9UHD2); assay: Navigating the Kinome. Panel member name: TBK1
T1 sequence (Q9UHD2 whole entry): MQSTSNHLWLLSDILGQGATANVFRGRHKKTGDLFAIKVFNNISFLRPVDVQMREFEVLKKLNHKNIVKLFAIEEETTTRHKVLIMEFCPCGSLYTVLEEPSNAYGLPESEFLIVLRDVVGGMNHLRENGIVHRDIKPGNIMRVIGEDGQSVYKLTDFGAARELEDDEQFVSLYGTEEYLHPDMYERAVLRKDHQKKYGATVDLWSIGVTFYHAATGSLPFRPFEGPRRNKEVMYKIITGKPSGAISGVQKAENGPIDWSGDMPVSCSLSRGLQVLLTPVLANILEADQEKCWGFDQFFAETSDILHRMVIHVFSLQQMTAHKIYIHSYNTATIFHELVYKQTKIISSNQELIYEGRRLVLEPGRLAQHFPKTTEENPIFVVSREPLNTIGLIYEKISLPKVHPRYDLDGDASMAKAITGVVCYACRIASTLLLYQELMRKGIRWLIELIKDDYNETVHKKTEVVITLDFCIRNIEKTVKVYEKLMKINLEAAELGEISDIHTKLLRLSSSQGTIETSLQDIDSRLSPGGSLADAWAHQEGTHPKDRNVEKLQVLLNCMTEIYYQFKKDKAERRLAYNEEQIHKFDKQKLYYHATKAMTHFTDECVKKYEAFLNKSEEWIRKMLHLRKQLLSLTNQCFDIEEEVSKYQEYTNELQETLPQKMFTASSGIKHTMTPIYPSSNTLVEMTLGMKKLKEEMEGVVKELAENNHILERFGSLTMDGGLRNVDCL

[3] = target: Macrophage-stimulating protein receptor (Homo sapiens, UniProt Q04912); assay: Navigating the Kinome. Panel member name: MST1R
Chain of Macrophage-stimulating protein receptor (Q04912 25-304 limits assumed): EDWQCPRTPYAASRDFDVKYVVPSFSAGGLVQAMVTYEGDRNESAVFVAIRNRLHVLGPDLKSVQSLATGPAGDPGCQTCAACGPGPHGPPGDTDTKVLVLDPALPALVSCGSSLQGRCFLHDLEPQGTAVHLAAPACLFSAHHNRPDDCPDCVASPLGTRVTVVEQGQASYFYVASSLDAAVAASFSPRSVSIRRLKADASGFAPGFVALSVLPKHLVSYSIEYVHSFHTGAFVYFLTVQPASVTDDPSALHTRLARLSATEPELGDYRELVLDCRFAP
Chain of Macrophage-stimulating protein receptor (Q04912 310-1400 limits assumed): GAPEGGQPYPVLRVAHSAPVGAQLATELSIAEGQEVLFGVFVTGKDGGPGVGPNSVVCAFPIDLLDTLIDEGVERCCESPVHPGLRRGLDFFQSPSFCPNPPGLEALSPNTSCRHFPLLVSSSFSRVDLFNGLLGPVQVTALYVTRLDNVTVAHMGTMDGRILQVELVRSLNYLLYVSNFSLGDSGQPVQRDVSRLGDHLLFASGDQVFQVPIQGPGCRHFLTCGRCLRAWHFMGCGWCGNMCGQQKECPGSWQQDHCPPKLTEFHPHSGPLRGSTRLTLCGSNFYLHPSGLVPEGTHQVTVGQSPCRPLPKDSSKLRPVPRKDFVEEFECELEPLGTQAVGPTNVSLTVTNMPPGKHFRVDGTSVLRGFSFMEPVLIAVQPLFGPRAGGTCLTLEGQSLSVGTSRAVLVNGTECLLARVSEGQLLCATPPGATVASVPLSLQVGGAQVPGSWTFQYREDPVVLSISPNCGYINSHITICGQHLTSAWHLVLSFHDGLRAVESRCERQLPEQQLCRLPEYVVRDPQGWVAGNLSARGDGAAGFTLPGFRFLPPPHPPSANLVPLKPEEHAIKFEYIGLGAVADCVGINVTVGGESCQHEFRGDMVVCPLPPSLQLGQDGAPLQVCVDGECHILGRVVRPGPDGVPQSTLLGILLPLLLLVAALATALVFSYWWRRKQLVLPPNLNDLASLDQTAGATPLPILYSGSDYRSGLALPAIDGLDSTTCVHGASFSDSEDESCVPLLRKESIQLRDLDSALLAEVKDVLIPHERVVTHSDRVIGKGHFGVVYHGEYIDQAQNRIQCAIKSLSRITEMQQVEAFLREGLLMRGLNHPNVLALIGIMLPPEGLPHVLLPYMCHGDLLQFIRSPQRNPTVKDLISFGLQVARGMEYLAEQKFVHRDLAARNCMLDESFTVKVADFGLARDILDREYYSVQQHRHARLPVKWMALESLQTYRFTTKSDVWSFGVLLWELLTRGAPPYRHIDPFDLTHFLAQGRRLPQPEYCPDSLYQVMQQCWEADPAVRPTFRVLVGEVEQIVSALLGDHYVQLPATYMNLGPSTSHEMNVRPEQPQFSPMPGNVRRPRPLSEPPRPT

[4] = target: cAMP-dependent protein kinase catalytic subunit alpha (Homo sapiens, UniProt P17612)
[5] = target: Insulin-like growth factor 1 receptor (Homo sapiens, UniProt P08069); assay: Navigating the Kinome. Panel member name: IGF1R
[6] = target: Vascular endothelial growth factor receptor 2 (Homo sapiens, UniProt P35968)
Chain of Vascular endothelial growth factor receptor 2 (P35968 whole entry): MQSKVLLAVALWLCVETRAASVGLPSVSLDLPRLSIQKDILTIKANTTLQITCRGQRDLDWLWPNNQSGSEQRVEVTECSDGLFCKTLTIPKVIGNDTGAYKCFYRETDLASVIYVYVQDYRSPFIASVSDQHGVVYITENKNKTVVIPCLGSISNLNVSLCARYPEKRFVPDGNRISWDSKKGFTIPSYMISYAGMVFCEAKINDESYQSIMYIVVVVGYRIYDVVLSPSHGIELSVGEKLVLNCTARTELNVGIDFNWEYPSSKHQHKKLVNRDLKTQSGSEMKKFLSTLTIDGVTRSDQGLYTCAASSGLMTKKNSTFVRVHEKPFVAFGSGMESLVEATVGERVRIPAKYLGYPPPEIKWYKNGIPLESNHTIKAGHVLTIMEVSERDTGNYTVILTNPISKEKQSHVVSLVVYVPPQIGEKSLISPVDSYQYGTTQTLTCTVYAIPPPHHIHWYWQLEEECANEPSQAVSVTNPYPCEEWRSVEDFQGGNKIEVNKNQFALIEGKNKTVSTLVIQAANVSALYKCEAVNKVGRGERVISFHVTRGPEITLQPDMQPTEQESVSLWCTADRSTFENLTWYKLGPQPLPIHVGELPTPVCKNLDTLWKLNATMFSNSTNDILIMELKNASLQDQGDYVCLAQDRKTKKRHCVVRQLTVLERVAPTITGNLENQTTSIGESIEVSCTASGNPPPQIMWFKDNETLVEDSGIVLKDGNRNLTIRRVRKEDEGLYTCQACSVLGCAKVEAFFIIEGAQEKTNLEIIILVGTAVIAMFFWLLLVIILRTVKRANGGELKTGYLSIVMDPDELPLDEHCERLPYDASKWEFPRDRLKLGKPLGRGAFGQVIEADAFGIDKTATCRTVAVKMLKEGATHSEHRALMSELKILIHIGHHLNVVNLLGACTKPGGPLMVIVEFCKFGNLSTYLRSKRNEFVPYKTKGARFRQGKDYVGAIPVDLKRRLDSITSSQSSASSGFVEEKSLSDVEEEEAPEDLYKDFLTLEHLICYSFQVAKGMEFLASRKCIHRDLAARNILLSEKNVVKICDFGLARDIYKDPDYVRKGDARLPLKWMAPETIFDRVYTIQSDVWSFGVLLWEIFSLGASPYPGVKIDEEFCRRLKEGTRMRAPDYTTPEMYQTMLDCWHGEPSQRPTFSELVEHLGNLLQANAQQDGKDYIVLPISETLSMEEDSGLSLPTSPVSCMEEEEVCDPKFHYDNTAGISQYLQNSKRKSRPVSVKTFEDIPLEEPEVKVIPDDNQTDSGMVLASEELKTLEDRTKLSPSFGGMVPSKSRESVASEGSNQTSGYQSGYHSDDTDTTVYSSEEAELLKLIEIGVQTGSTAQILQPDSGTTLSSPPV

[7] = target: T2, Serine/threonine-protein kinase TAO1 (Homo sapiens, UniProt Q7L7X3)
T2 sequence (Q7L7X3 whole entry): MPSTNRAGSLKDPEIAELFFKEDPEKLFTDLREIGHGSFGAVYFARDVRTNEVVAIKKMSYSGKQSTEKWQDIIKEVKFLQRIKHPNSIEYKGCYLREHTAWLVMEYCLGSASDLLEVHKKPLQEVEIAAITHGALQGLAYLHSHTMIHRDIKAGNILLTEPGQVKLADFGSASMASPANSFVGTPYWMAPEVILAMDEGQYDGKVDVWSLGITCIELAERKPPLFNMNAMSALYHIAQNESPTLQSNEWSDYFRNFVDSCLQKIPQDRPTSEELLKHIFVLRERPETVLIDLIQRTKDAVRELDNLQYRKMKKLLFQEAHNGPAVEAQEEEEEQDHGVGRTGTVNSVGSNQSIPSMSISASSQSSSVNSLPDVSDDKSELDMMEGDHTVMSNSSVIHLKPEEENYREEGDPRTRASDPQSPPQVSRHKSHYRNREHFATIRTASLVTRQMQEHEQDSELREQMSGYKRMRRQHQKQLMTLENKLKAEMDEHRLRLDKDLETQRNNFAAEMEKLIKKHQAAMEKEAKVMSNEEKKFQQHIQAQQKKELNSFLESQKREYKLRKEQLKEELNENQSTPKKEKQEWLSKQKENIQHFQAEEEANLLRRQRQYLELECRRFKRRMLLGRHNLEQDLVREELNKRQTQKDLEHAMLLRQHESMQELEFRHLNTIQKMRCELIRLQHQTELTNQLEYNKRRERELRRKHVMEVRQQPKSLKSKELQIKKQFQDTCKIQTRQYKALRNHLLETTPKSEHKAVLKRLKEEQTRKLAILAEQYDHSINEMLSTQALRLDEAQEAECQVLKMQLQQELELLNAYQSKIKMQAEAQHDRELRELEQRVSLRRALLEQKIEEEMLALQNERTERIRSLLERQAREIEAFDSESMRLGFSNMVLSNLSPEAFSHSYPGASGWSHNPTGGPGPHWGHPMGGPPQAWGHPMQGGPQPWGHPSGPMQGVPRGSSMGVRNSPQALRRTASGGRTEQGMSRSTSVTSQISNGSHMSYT

[8] = target: Protein kinase C theta type (Homo sapiens, UniProt Q04759); assay: Navigating the Kinome. Panel member name: PRKCQ
Chain of Protein kinase C theta type (Q04759 whole entry): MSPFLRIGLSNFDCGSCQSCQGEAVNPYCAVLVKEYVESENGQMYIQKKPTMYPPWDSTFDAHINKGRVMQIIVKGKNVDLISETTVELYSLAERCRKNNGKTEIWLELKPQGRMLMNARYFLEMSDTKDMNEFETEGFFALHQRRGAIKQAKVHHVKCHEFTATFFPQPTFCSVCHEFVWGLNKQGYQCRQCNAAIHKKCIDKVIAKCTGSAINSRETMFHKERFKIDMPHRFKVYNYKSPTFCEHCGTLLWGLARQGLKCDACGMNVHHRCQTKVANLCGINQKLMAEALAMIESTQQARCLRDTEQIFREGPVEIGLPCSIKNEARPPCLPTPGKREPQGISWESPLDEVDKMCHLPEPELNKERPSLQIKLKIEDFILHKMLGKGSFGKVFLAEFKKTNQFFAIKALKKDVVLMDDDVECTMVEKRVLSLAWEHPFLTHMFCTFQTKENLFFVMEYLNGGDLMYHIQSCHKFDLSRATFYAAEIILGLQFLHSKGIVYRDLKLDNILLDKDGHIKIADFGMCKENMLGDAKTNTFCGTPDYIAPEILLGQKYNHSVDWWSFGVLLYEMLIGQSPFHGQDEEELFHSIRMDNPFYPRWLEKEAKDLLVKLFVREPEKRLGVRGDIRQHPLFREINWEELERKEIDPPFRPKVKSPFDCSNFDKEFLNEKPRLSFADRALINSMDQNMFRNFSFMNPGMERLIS

Aurora kinase B = Aurora kinase B (Homo sapiens, UniProt Q96GD4)
Chain of Aurora kinase B (Q96GD4 whole entry): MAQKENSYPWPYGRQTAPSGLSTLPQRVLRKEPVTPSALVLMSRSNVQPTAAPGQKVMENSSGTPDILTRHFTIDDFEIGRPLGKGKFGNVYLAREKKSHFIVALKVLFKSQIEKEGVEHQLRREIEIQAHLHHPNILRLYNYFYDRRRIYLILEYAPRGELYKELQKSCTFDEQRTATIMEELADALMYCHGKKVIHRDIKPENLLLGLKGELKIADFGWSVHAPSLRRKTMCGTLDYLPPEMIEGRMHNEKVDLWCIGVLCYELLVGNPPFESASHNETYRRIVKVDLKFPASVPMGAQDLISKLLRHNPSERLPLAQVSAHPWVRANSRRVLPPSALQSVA

[9] = target: Mitogen-activated protein kinase 9 (Homo sapiens, UniProt P45984);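 note: value from a kinome panel profiling assay, MAPK9 panel entry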
Chain of Mitogen-activated protein kinase 9 (P45984 whole entry): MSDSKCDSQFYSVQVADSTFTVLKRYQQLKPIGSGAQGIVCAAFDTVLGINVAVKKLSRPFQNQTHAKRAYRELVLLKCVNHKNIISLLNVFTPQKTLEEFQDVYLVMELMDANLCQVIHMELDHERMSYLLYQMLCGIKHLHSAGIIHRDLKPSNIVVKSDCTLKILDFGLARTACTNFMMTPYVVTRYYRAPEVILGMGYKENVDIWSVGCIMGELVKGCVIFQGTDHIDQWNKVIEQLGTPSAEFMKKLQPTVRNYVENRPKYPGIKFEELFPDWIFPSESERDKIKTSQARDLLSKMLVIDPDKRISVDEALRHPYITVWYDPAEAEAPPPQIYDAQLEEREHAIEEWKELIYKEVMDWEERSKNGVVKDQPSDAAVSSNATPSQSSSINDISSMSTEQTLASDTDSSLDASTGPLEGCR

[10] = target: ALK tyrosine kinase receptor (Homo sapiens, UniProt Q9UM73);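 note: ALK tested as one member of a kinase panel screen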
[11] = target: T3, Serine/threonine-protein kinase Chk1 (Homo sapiens, UniProt O14757);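 note: measured as one member of a kinome-wide kinase profiling panel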
T3 sequence (O14757 whole entry): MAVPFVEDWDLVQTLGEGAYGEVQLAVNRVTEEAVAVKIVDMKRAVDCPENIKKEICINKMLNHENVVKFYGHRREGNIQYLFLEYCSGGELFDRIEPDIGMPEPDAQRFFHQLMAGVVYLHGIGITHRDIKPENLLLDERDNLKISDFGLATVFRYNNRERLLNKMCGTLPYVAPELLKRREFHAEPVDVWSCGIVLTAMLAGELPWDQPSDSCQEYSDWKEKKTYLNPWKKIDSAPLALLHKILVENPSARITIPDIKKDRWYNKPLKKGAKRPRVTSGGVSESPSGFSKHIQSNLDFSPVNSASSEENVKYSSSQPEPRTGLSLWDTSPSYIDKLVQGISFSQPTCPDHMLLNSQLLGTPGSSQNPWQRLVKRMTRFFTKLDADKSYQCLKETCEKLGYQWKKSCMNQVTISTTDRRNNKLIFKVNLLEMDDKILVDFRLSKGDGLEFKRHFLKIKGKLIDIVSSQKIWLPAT

Chain of Cyclin-dependent kinase 5 (Q00535 whole entry): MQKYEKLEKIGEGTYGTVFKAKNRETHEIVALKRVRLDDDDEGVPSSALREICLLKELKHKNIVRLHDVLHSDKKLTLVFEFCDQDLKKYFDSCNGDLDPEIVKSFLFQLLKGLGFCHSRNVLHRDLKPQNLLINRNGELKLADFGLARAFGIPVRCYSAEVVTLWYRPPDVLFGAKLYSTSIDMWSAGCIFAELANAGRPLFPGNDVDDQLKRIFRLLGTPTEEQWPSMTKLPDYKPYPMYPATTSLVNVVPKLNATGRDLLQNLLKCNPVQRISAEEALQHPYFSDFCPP

Structure (SMILES)	Ki [1]	Ki [2]	Ki [3]	Ki [4]	Ki [5]	Ki [6]	Ki [7]	Ki [8]	Ki (Aurora kinase B)	Ki [9]	Ki [10]	Ki [11]	further results
OC1CCC(Nc2nc(Cl)cc(-c3c[nH]c4ncccc34)n2)CC1 (centres undefined)	10 nM (active)	1 µM (active)	100 nM (active)	31.6 nM (active)	> 2 µM (inactive)	251 nM (active)	0.501 µM (active)	15.8 nM (active)	501 nM (active)	251 nM (active)	> 1.26 µM (inactive)	398 nM (active)	pKi [1]: 8; pKi [2]: 6; pKi [3]: 7; pKi [4]: 7.5; pKi [6]: 6.6; pKi [7]: 6.3; pKi [8]: 7.8; pKi (Aurora kinase B): 6.3; pKi [9]: 6.6; pKi [11]: 6.4
COc1cccc(CNC(=O)c2cnc(-c3ccncc3)nc2)c1	> 3160 nM (inactive)	> 3.16 µM (inactive)	> 3980 nM (inactive)	316 nM (active)	> 2.51 µM (inactive)	> 2510 nM (inactive)	> 6.31 µM (inactive)	1000 nM (active)	> 3980 nM (inactive)	> 3980 nM (inactive)	> 6.31 µM (inactive)	> 3160 nM (inactive)	

— ChEMBL document CHEMBL1201862, “PubChem BioAssay data set” (2004)
